Key:
Type in all cases: in vivo
[1] = system: Phakopsora pachyrhizi (the causal agent of Asian soybean rust); test: Test F: Compound 32 or 64 alone and in mixtures on soybean seedlings, observed (Obsd) and Colby expected (Exp) disease control; conditions: for pest or weed control at 46.795 ppm: epoxiconazole 46.795 ppm alone; for pest or weed control at 89.631 ppm: epoxiconazole 89.631 ppm alone; for pest or weed control at 138.129 ppm: chlorothalonil 138.129 ppm alone; for pest or weed control at 222.081 ppm: chlorothalonil 222.081 ppm alone; for pest or weed control at 37.333 ppm: cyproconazole 37.333 ppm alone; for pest or weed control at 64.883 ppm: cyproconazole 64.883 ppm alone; for pest or weed control at 78.393 ppm: fenpropidin 78.393 ppm alone; for pest or weed control at 161.74 ppm: fenpropidin 161.740 ppm alone; for pest or weed control at 242.823 ppm: fenpropimorph 242.823 ppm alone; for pest or weed control at 458.587 ppm: fenpropimorph 458.587 ppm alone; for pest or weed control at 544.265 ppm: flutriafol 544.265 ppm alone; for pest or weed control at 1124.02 ppm: flutriafol 1124.021 ppm alone; for pest or weed control at 29.673 ppm: metominostrobin 29.673 ppm alone; for pest or weed control at 86.003 ppm: metominostrobin 86.003 ppm alone; for pest or weed control at 10.165 ppm: prothioconazole 10.165 ppm alone; for pest or weed control at 16.339 ppm: prothioconazole 16.339 ppm alone
From the text: The general protocol for preparing test compositions for Test F was as follows: Compound 32, Compound 64, azoxystrobin, benzovindiflupyr, bixafen, chlorothalonil, cyproconazole, epoxiconazole, fenpropidin, fenpropimorph, fluindapyr, flutriafol, fluxapyroxad, metominostrobin, picoxystrobin, prothioconazole, pydiflumetofen, pyraclostrobin, tebuconazole and trifloxystrobin were obtained as unformulated, technical-grade materials. Copper hydroxide and mancozeb was obtained as a formulated product marketed under the trademarks KOCIDE 3000 and MANZATE, respectively. Unformulated materials were first dissolved in acetone and then suspended at the desired concentration (in ppm) in acetone and purified water (50/50 mix by volume) containing 250 ppm of the surfactant Trem® 014 (polyhydric alcohol esters). Formulated materials were dispersed in sufficient water to give the desired concentration, and neither organic solvent nor surfactant was added to the suspension. The resulting test mixtures were then used in Test F. The tests were run on four individual plants and the results reported as the mean average of the four plants.
The presence of a synergistic effect between two active ingredients was established with the aid of the Colby equation (see Colby, S. R. “Calculating Synergistic and Antagonistic Responses of Herbicide Combinations”, Weeds, (1967), 15, 20-22):
Using the method of Colby, the presence of a synergistic interaction between two active ingredients is established by first calculating the predicted activity, p, of the mixture based on activities of the two components applied alone. If p is lower than the experimentally established effect, synergism has occurred. In the equation above, A is the fungicidal activity in percentage control of one component applied alone at rate x. The B term is the fungicidal activity in percentage control of the second component applied at rate y. The equation estimates p, the expected fungicidal activity of the mixture of A at rate x with B at rate y if their effects are strictly additive and no interaction has occurred.
The test mixture was sprayed to the point of run-off on soybean seedlings. The following day the seedlings were inoculated with a spore suspension of Phakopsora pachyrhizi (the causal agent of Asian soybean rust) and incubated in a saturated atmosphere at 22° C. for 24 h and then moved to a growth chamber at 22° C. for 8 days, after which time visual disease ratings were made.
Results for Test F are given in Tables B-1 through I-1 for Compound 32 and Tables B-2 through I-2 for Compound 64. Each table corresponds to a set of evaluations performed together at the same time. In each table, a rating of 100 indicates 100% disease control and a rating of 0 indicates no disease control (relative to the controls). Columns labeled “Obsd” indicate the average of results observed from test run on four individual plants. Columns labeled “Exp” indicate the expected value for each treatment mixture using the Colby equation.

[2] = system: Phakopsora pachyrhizi (the causal agent of Asian soybean rust); test: Test A: preventive spray on soybean seedlings, visual disease rating (100 = 100% control; * 50 ppm, ** 10 ppm, *** 250 ppm); conditions: 100 = 100% disease control, 0 = no control
Method in brief: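 Soybean seedlings sprayed to run-off with compound suspended in acetone/water with 250 ppm PEG400 surfactant, inoculated next day with P. pachyrhizi spores. Kept 24 h saturated at 22 °C, then 8 days at 22 °C before visual rating of disease control (0-100) relative to controls.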

[3] = system: Puccinia recondita f. sp. tritici (the causal agent of wheat leaf rust); test: Test B: preventive spray on wheat seedlings, disease rating (100 = 100% control; * 50 ppm, ** 10 ppm, *** 250 ppm); conditions: 100 = 100% disease control, 0 = no control
Method in brief: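 Wheat seedlings sprayed to run-off with compound in acetone/water (50/50) containing 250 ppm PEG400, inoculated next day with Puccinia recondita f. sp. tritici spores. Held 24 h saturated at 20° C, then 6 days at 20° C; disease control rated 0–100 relative to controls.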

[4] = Phakopsora pachyrhizi, Table F-1
[5] = Phakopsora pachyrhizi, Table F-2
[6] = Phakopsora pachyrhizi, Table G-1
[7] = Phakopsora pachyrhizi, Table G-2
[8] = Phakopsora pachyrhizi, 10 ppm test suspension
[9] = Puccinia recondita, 10 ppm test suspension
[10] = Phakopsora pachyrhizi, Table E-2
[11] = Phakopsora pachyrhizi, Table I-1
[12] = Phakopsora pachyrhizi, Table I-2
[13] = Phakopsora pachyrhizi, Table D-1
[14] = Phakopsora pachyrhizi, Table D-2
[15] = Phakopsora pachyrhizi, Table H-1
[16] = Phakopsora pachyrhizi, Table H-2

## Cn1cc(C(=O)Nc2cccc3c2[C@@H]2CC[C@H]3C2=C(Cl)Cl)c(C(F)F)n1 (racemic) [benzovindiflupyr]
[1]; benzovindiflupyr 0.606 ppm alone, Table G-1
  Obsd disease control: 67%
[1]; benzovindiflupyr 0.606 ppm alone, Table G-2
  Obsd disease control: 67%
[1]; benzovindiflupyr 0.980 ppm alone, Table G-1
  Obsd disease control: 67%
[1]; benzovindiflupyr 0.980 ppm alone, Table G-2
  Obsd disease control: 67%

## Fc1ccc([C@]2(Cn3cncn3)O[C@H]2c2ccccc2Cl)cc1 (racemic) [epoxiconazole]
[1]; [4]
  pest or weed control at 46.795 ppm: 23%
  pest or weed control at 89.631 ppm: 70%
[1]; [5]
  pest or weed control at 46.795 ppm: 23%
  pest or weed control at 89.631 ppm: 70%

## CO/C=C(/C(=O)OC)c1ccccc1Oc1cc(Oc2ccccc2C#N)ncn1 [azoxystrobin]
[1]; azoxystrobin 95.873 ppm alone, Table E-1
  Obsd disease control: 70%
[1]; azoxystrobin 95.873 ppm alone, Table E-2
  Obsd disease control: 70%
[1]; azoxystrobin 169.226 ppm alone, Table E-1
  Obsd disease control: 88%
[1]; azoxystrobin 169.226 ppm alone, Table E-2
  Obsd disease control: 88%

## Cn1cc(C(=O)Nc2ccc(F)cc2-c2ccc(Cl)c(Cl)c2)c(C(F)F)n1 [bixafen]
[1]; bixafen 11.327 ppm alone, Table C-1
  Obsd disease control: 54%
[1]; bixafen 11.327 ppm alone, Table C-2
  Obsd disease control: 54%
[1]; bixafen 19.525 ppm alone, Table C-1
  Obsd disease control: 55%
[1]; bixafen 19.525 ppm alone, Table C-2
  Obsd disease control: 55%

## N#Cc1c(Cl)c(Cl)c(Cl)c(C#N)c1Cl [chlorothalonil]
[1]; [6]
  pest or weed control at 138.129 ppm: 59%
  pest or weed control at 222.081 ppm: 85%
[1]; [7]
  pest or weed control at 138.129 ppm: 59%
  pest or weed control at 222.081 ppm: 85%

## CCOC(=O)c1cnn(COc2ccc(O/C=C(\OCC)C(F)(F)F)cc2F)c1 [compound 425]
[2]; [8]
  pest or weed control at 10 ppm: 100%
[3]; [9]
  pest or weed control at 10 ppm: 0%

## CCOC(=COc1ccc(COC)cc1)C(F)(F)F [compound 433]
[2]; 50 ppm test suspension
  Test A disease control rating: 0%
[3]; 50 ppm test suspension
  Test B disease control rating: 0%

## CCOC(=COc1ccc(CCl)cc1)C(F)(F)F [compound 434]
[2]; 50 ppm test suspension
  Test A disease control rating: 0%
[3]; 50 ppm test suspension
  Test B disease control rating: 0%

## Cc1ccc(OCC2(C(F)(F)F)OCCO2)c(F)c1 [compound 442]
[2]; Phakopsora pachyrhizi, 50 ppm test suspension
  pest or weed control at 50 ppm: 0%
[3]; Puccinia recondita, 50 ppm test suspension
  pest or weed control at 50 ppm: 0%

## CCOC(=O)c1cnn(Cc2ccc(NCC3(C(F)(F)F)OCCO3)cc2)c1 [compound 443]
[2]; 50 ppm test suspension
  Test A disease control rating: 48%
[3]; 50 ppm test suspension
  Test B disease control rating: 0%

## CCOC(=COc1ccc(CSC(C)=O)cc1)C(F)(F)F [compound 445]
[2]; 50 ppm test suspension
  Test A disease control rating: 38%
[3]; 50 ppm test suspension
  Test B disease control rating: 0%

## CCOC(=O)c1cn(Cc2cccc(O/C=C(\OCC)C(F)(F)F)c2)cn1 [compound 446]
[2]; [8]
  pest or weed control at 10 ppm: 98%
[3]; [9]
  pest or weed control at 10 ppm: 0%

## CCOC(=O)c1cncn1Cc1cccc(O/C=C(\OCC)C(F)(F)F)c1 [compound 447]
[2]; [8]
  pest or weed control at 10 ppm: 0%
[3]; [9]
  pest or weed control at 10 ppm: 0%

## CCOC(=O)c1cnn(Cc2cc(O/C=C(\OCC)C(F)(F)F)ccc2C)c1 [compound 451]
[2]; 50 ppm test suspension
  Test A disease control rating: 0%
[3]; 50 ppm test suspension
  Test B disease control rating: 0%

## CCOC(=O)c1ccnn1Cc1cc(C)cc(O/C=C(\OCC)C(F)(F)F)c1 [compound 462]
[2]; 10 ppm test suspension
  Test A disease control rating: 0%
[3]; 10 ppm test suspension
  Test B disease control rating: 0%

## CCOC(=O)c1ccnn1Cc1ccc(OC)c(O/C=C(\OCC)C(F)(F)F)c1 [compound 463]
[2]; 10 ppm test suspension
  Test A disease control rating: 0%
[3]; 10 ppm test suspension
  Test B disease control rating: 0%

## CC(C1CC1)C(O)(Cn1cncn1)c1ccc(Cl)cc1 (centres unmarked) [cyproconazole]
[1]; [10]
  pest or weed control at 37.333 ppm: 44%
  pest or weed control at 64.883 ppm: 68%
[1]; Table E-1
  pest or weed control at 37.333 ppm: 44%
  pest or weed control at 64.883 ppm: 68%

## CC(Cc1ccc(C(C)(C)C)cc1)CN1CCCCC1 (centres unmarked) [fenpropidin]
[1]; [11]
  pest or weed control at 78.393 ppm: 45%
  pest or weed control at 161.74 ppm: 68%
[1]; [12]
  pest or weed control at 78.393 ppm: 45%
  pest or weed control at 161.74 ppm: 68%

## CC(Cc1ccc(C(C)(C)C)cc1)CN1C[C@@H](C)O[C@@H](C)C1 (some centres unmarked) [fenpropimorph]
[1]; [13]
  pest or weed control at 242.823 ppm: 33%
  pest or weed control at 458.587 ppm: 44%
[1]; [14]
  pest or weed control at 242.823 ppm: 33%
  pest or weed control at 458.587 ppm: 44%

## CC1CC(C)(C)c2c(F)ccc(NC(=O)c3cn(C)nc3C(F)F)c21 (centres unmarked) [fluindapyr]
[1]; fluindapyr 8.820 ppm alone, Table C-1
  Obsd disease control: 61%
[1]; fluindapyr 8.820 ppm alone, Table C-2
  Obsd disease control: 61%
[1]; fluindapyr 15.230 ppm alone, Table C-1
  Obsd disease control: 79%
[1]; fluindapyr 15.230 ppm alone, Table C-2
  Obsd disease control: 79%

## OC(Cn1cncn1)(c1ccc(F)cc1)c1ccccc1F (centres unmarked) [flutriafol]
[1]; [11]
  pest or weed control at 544.265 ppm: 13%
  pest or weed control at 1124.02 ppm: 52%
[1]; [12]
  pest or weed control at 544.265 ppm: 13%
  pest or weed control at 1124.02 ppm: 52%

## Cn1cc(C(=O)Nc2ccccc2-c2cc(F)c(F)c(F)c2)c(C(F)F)n1 [fluxapyroxad]
[1]; fluxapyroxad 2.757 ppm alone, Table C-1
  Obsd disease control: 19%
[1]; fluxapyroxad 2.757 ppm alone, Table C-2
  Obsd disease control: 19%
[1]; fluxapyroxad 4.748 ppm alone, Table C-1
  Obsd disease control: 52%
[1]; fluxapyroxad 4.748 ppm alone, Table C-2
  Obsd disease control: 52%

## CNC(=O)/C(=N/OC)c1ccccc1Oc1ccccc1 [metominostrobin]
[1]; [15]
  pest or weed control at 29.673 ppm: 13%
  pest or weed control at 86.003 ppm: 37%
[1]; [16]
  pest or weed control at 29.673 ppm: 13%
  pest or weed control at 86.003 ppm: 37%

## CO/C=C(/C(=O)OC)c1ccccc1COc1cccc(C(F)(F)F)n1 [picoxystrobin]
[1]; picoxystrobin 20.596 ppm alone, Table B-1
  Obsd disease control: 73%
[1]; picoxystrobin 20.596 ppm alone, Table B-2
  Obsd disease control: 73%
[1]; picoxystrobin 33.865 ppm alone, Table B-1
  Obsd disease control: 75%
[1]; picoxystrobin 33.865 ppm alone, Table B-2
  Obsd disease control: 75%

## OC(Cc1ccccc1Cl)(Cn1nc[nH]c1=S)C1(Cl)CC1 (centres unmarked) [prothioconazole]
[1]; [6]
  pest or weed control at 10.165 ppm: 7%
  pest or weed control at 16.339 ppm: 65%
[1]; [7]
  pest or weed control at 10.165 ppm: 7%
  pest or weed control at 16.339 ppm: 65%

## CON(C(=O)c1cn(C)nc1C(F)F)C(C)Cc1c(Cl)cc(Cl)cc1Cl (centres unmarked) [pydiflumetofen]
[1]; pydiflumetofen 41.364 ppm alone, Table H-1
  Obsd disease control: 49%
[1]; pydiflumetofen 41.364 ppm alone, Table H-2
  Obsd disease control: 49%
[1]; pydiflumetofen 70.950 ppm alone, Table F-1
  Obsd disease control: 0%
[1]; pydiflumetofen 70.950 ppm alone, Table F-2
  Obsd disease control: 0%
[1]; pydiflumetofen 128.793 ppm alone, Table H-1
  Obsd disease control: 36%
[1]; pydiflumetofen 128.793 ppm alone, Table H-2
  Obsd disease control: 36%
[1]; pydiflumetofen 135.850 ppm alone, Table F-1
  Obsd disease control: 73%
[1]; pydiflumetofen 135.850 ppm alone, Table F-2
  Obsd disease control: 73%

Reference: US20240122180A1, “FUNGICIDAL HALOMETHYL KETONES AND HYDRATES AND THEIR MIXTURES” (FMC Corporation, priority 2020, published 2024)
